From ChEMBL document CHEMBL1240316, “An oxidation-sensing mechanism is used by the global regulator MgrA in Staphylococcus aureus” (2006) come the findings set out here.

The source made the active and inactive calls. No cut-off for these calls is given here.

Common to all, as to format: functional, organism-based
Assay [1] concerns Staphylococcus aureus. Briefly: Antimicrobial activity against Staphylococcus aureus assessed as visible growth at 0.45 ug/ml after 24 hrs in presence of 20 uM paraquat.
Assay [2] relates to Staphylococcus aureus. Briefly: Antimicrobial activity against Staphylococcus aureus expressing mgrA C12S mutant gene harboring Pyj335-His-mgrA assessed as visible growth at 0.65 ug/ml after 24 hrs.
Assay [3] concerns Staphylococcus aureus. Briefly: Antimicrobial activity against Staphylococcus aureus expressing mgrA C12S mutant gene harboring Pyj335-His-mgrAC12S assessed as visible growth at 0.20 ug/ml after 24 hrs in presence of 25 uM paraquat.
In assay [4] the test system is Staphylococcus aureus. Briefly: Antimicrobial activity against Staphylococcus aureus expressing mgrA C12S mutant gene harboring plasmid Pyj335 assessed as visible growth at 0.20 ug/ml after 24 hrs in presence of 100 uM hydrogen peroxide.
Assay [5] deals with Staphylococcus aureus. Briefly: Antimicrobial activity against Staphylococcus aureus expressing mgrA C12S mutant gene assessed as visible growth at 0.55 ug/ml after 24 hrs.
Assay [6] deals with Staphylococcus aureus. Briefly: Antimicrobial activity against Staphylococcus aureus expressing mgrA C12S mutant gene harboring Pyj335-His-mgrA C12S assessed as visible growth at 0.20 ug/ml after 24 hrs.
Assay [7] has as its system Staphylococcus aureus. Briefly: Antimicrobial activity against Staphylococcus aureus assessed as visible growth at 0.65 ug/ml after 24 hrs in presence of 20 uM paraquat.
Assay [8] has as its system Staphylococcus aureus. The assay can be described thus: Antimicrobial activity against Staphylococcus aureus assessed as visible growth at 0.20 ug/ml after 24 hrs in presence of 25 uM paraquat.
The subject of assay [9] is Staphylococcus aureus. The assay can be described thus: Antimicrobial activity against Staphylococcus aureus expressing mgrA C12S mutant gene harboring plasmid Pyj335 assessed as visible growth at 0.75 ug/ml after 24 hrs in presence of 20 uM paraquat.
In assay [10] the test system is Staphylococcus aureus. Briefly: Antimicrobial activity against Staphylococcus aureus expressing mgrA C12S mutant gene assessed as visible growth at 0.65 ug/ml after 24 hrs in presence of 20 uM paraquat.
Assay [11] concerns Staphylococcus aureus. The assay can be described thus: Antimicrobial activity against Staphylococcus aureus expressing mgrA C12S mutant gene assessed as visible growth at 0.20 ug/ml after 24 hrs.
In assay [12] the test system is Staphylococcus aureus. The assay can be described thus: Antimicrobial activity against Staphylococcus aureus expressing mgrA C12S mutant gene harboring Pyj335-His-mgrA assessed as visible growth at 0.20 ug/ml after 24 hrs in presence of 25 uM paraquat.
Assay [13] deals with Staphylococcus aureus. The assay can be described thus: Antimicrobial activity against Staphylococcus aureus assessed as visible growth at 0.55 ug/ml after 24 hrs in presence of 20 uM paraquat.
Assay [14] has as its system Staphylococcus aureus. Briefly: Antimicrobial activity against Staphylococcus aureus expressing mgrA C12S mutant gene assessed as visible growth at 0.35 ug/ml after 24 hrs.
Assay [15] deals with Staphylococcus aureus. The assay can be described thus: Antimicrobial activity against Staphylococcus aureus expressing mgrA C12S mutant gene assessed as visible growth at 0.65 ug/ml after 24 hrs.
Assay [16] concerns Staphylococcus aureus. The assay can be described thus: Antimicrobial activity against Staphylococcus aureus expressing mgrA C12S mutant gene harboring plasmid Pyj335 assessed as visible growth at 0.20 ug/ml after 24 hrs.
In assay [17] the test system is Staphylococcus aureus. Briefly: Antimicrobial activity against Staphylococcus aureus assessed as visible growth at 2.2 ug/ml after 24 hrs in presence of 20 uM paraquat.
Assay [18] relates to Staphylococcus aureus. The assay can be described thus: Antimicrobial activity against Staphylococcus aureus expressing mgrA C12S mutant gene harboring plasmid Pyj335 assessed as visible growth at 1.4 ug/ml after 24 hrs.
In assay [19] the test system is Staphylococcus aureus. The assay can be described thus: Antimicrobial activity against Staphylococcus aureus expressing mgrA C12S mutant gene assessed as visible growth at 1.4 ug/ml after 24 hrs in presence of 20 uM paraquat.
Assay [20] relates to Staphylococcus aureus. The assay can be described thus: Antimicrobial activity against Staphylococcus aureus expressing mgrA C12S mutant gene harboring Pyj335-His-mgrA C12S assessed as visible growth at 1.1 ug/ml after 24 hrs in presence of 25 uM of paraquat.
Assay [21] concerns Staphylococcus aureus. The assay can be described thus: Antimicrobial activity against Staphylococcus aureus expressing mgrA C12S mutant gene harboring Pyj335-His-mgrA assessed as visible growth at 1.8 ug/ml after 24 hrs.
Assay [22] has as its system Staphylococcus aureus. The assay can be described thus: Antimicrobial activity against Staphylococcus aureus expressing mgrA C12S mutant gene harboring Pyj335-His-mgrA assessed as visible growth at 0.6 ug/ml after 24 hrs in presence of 20 uM paraquat.
The test system of assay [23] is Staphylococcus aureus. Briefly: Antimicrobial activity against Staphylococcus aureus assessed as visible growth at 0.6 ug/ml after 24 hrs.
In assay [24] the test system is Staphylococcus aureus. Briefly: Antimicrobial activity against Staphylococcus aureus expressing mgrA C12S mutant gene harboring Pyj335-His-mgrA assessed as visible growth at 1 ug/ml after 24 hrs in presence of 20 uM paraquat.
The subject of assay [25] is Staphylococcus aureus. Briefly: Antimicrobial activity against Staphylococcus aureus assessed as visible growth at 1.4 ug/ml after 24 hrs.
Assay [26] relates to Staphylococcus aureus. The assay can be described thus: Antimicrobial activity against Staphylococcus aureus expressing mgrA C12S mutant gene assessed as visible growth at 2.2 ug/ml after 24 hrs.
Assay [27] concerns Staphylococcus aureus. The assay can be described thus: Antimicrobial activity against Staphylococcus aureus expressing mgrA C12S mutant gene harboring plasmid Pyj335 assessed as visible growth at 1.1 ug/ml after 24 hrs.
The test system of assay [28] is Staphylococcus aureus. The assay can be described thus: Antimicrobial activity against Staphylococcus aureus expressing mgrA C12S mutant gene harboring plasmid Pyj335 assessed as visible growth at 2.2 ug/ml after 24 hrs.
Assay [29] concerns Staphylococcus aureus. Briefly: Antimicrobial activity against Staphylococcus aureus expressing mgrA C12S mutant gene assessed as visible growth at 1.1 ug/ml after 24 hrs in presence of 25 uM paraquat.
The subject of assay [30] is Staphylococcus aureus. Briefly: Antimicrobial activity against Staphylococcus aureus assessed as visible growth at 1.8 ug/ml after 24 hrs in presence of 20 uM paraquat.
The test system of assay [31] is Staphylococcus aureus. Briefly: Antimicrobial activity against Staphylococcus aureus expressing mgrAC12S mutant gene assessed as visible growth at 1.1 ug/ml after 24 hrs in presence of 100 uM hydrogen peroxide.
The subject of assay [32] is Staphylococcus aureus. The assay can be described thus: Antimicrobial activity against Staphylococcus aureus expressing mgrA C12S mutant gene assessed as visible growth at 1.4 ug/ml after 24 hrs.
Assay [33] has as its system Staphylococcus aureus. The assay can be described thus: Antimicrobial activity against Staphylococcus aureus assessed as visible growth at 2.6 ug/ml after 24 hrs.
The test system of assay [34] is Staphylococcus aureus. Briefly: Antimicrobial activity against Staphylococcus aureus assessed as visible growth at 2.6 ug/ml after 24 hrs in presence of 20 uM paraquat.
Assay [35] deals with Staphylococcus aureus. Briefly: Antimicrobial activity against Staphylococcus aureus assessed as visible growth at 1.4 ug/ml after 24 hrs in presence of 20 uM paraquat.
For assay [36], the system named is Staphylococcus aureus. Briefly: Antimicrobial activity against Staphylococcus aureus expressing mgrA C12S mutant gene assessed as visible growth at 2.6 ug/ml after 24 hrs in presence of 20 uM paraquat.
For assay [37], the system named is Staphylococcus aureus. The assay can be described thus: Antimicrobial activity against Staphylococcus aureus expressing mgrA C12S mutant gene harboring Pyj335-His-mgrA assessed as visible growth at 2.6 ug/ml after 24 hrs.
For assay [38], the system named is Staphylococcus aureus. Briefly: Antimicrobial activity against Staphylococcus aureus assessed as visible growth at 1.1 ug/ml after 24 hrs.
Assay [39] has as its system Staphylococcus aureus. The assay can be described thus: Antimicrobial activity against Staphylococcus aureus assessed as visible growth at 1.8 ug/ml after 24 hrs.
Assay [40] concerns Staphylococcus aureus. Briefly: Antimicrobial activity against Staphylococcus aureus expressing mgrA C12S mutant gene harboring plasmid Pyj335 assessed as visible growth at 1.1 ug/ml after 24 hrs in presence of 25 uM paraquat.
For assay [41], the system named is Staphylococcus aureus. The assay can be described thus: Antimicrobial activity against Staphylococcus aureus assessed as visible growth at 0.6 ug/ml after 24 hrs in presence of 20 uM paraquat.

For the compound `O=C(O)c1cn(C2CC2)c2cc(N3CCNCC3)c(F)cc2c1=O` [CIPROFLOXACIN], the result in the assay with Staphylococcus aureus [1], in the assay on Staphylococcus aureus [4], in the assay on Staphylococcus aureus [5], in the assay with Staphylococcus aureus [10], in the assay with Staphylococcus aureus [11] and in the assay with Staphylococcus aureus [14] was inactive. Also, the result with Staphylococcus aureus [15] and in the assay on Staphylococcus aureus [16] was inactive. Also, the outcome with Staphylococcus aureus [2], in the assay on Staphylococcus aureus [3], in the assay with Staphylococcus aureus [6], in the assay on Staphylococcus aureus [7], with Staphylococcus aureus [8] and with Staphylococcus aureus [9] was Active. For the same compound, the result in the assay on Staphylococcus aureus [12] and in the assay on Staphylococcus aureus [13] was Active.
For `CN[C@H](CC(C)C)C(=O)N[C@H]1C(=O)N[C@@H](CC(N)=O)C(=O)N[C@H]2C(=O)N[C@H]3C(=O)N[C@H](C(=O)N[C@H](C(=O)O)c4cc(O)cc(O)c4-c4cc3ccc4O)[C@H](O)c3ccc(c(Cl)c3)Oc3cc2cc(c3O[C@@H]2O[C@H](CO)[C@@H](O)[C@H](O)[C@H]2O[C@H]2C[C@](C)(N)[C@H](O)[C@H](C)O2)Oc2ccc(cc2Cl)[C@H]1O` [VANCOMYCIN], the outcome with Staphylococcus aureus [17], in the assay on Staphylococcus aureus [20], with Staphylococcus aureus [21], in the assay on Staphylococcus aureus [25], in the assay on Staphylococcus aureus [30] and in the assay with Staphylococcus aureus [33] was Active. For the same compound, the outcome with Staphylococcus aureus [34], in the assay with Staphylococcus aureus [36], in the assay on Staphylococcus aureus [37], with Staphylococcus aureus [38] and in the assay with Staphylococcus aureus [39] was Active. Further, the result with Staphylococcus aureus [18], in the assay with Staphylococcus aureus [19], with Staphylococcus aureus [22], in the assay on Staphylococcus aureus [23], in the assay on Staphylococcus aureus [24] and in the assay with Staphylococcus aureus [26] was inactive. Also, the outcome in the assay with Staphylococcus aureus [27], in the assay with Staphylococcus aureus [28], in the assay on Staphylococcus aureus [29], in the assay on Staphylococcus aureus [31], with Staphylococcus aureus [32] and with Staphylococcus aureus [35] was inactive. In addition, the result in the assay on Staphylococcus aureus [40] and with Staphylococcus aureus [41] was inactive.
